Test results published in patent US12427192B2, “Water soluble adjuvant and composition containing same” (Sumitomo Pharma Co., Ltd., priority 2019, dated 2025).

Test system: HLA-A*02:01 transgenic mouse
Test: Test 7: in vivo adjuvant activity, vaccine d (Peptide SEQ ID No. 5), IFNγ ELISPOT
Conditions: added to vaccine d; 330 ng per body, once; FIG. 4
Description: Evaluation of In Vivo Adjuvant Activity in HLA-A*02:01 Transgenic Mouse
The in vivo adjuvant activity of the compound of Example 1 was evaluated in the following procedure. To a vaccine prepared by mixing Peptide SEQ ID No. 5 prepared in Reference example 5 with Montanide ISA 51 VG (hereinafter, referred to as “vaccine d”) was added the compound prepared in Example 1 to prepare a vaccine. The vaccine was administered to a HLA-A*02:01 transgenic mouse, and the adjuvant activity of the vaccine was evaluated by the method of testing antigen-specific CTL induction. The VLQELNVTV in Peptide SEQ ID No. 5 corresponds to an antigen peptide derived from an HLA-A*02:01-restricted Proteinase-3 protein.
The character for inducing CTLs specific to the antigen peptide (SEQ ID No. 5) by vaccine d was evaluated by measuring whether IFNγ can be produced upon stimulation of splenocytes from the mouse with the peptide. In addition, the character for exerting in vivo adjuvant activity by the compound in Example 1 was evaluated by comparing the number of CTLs induced by vaccine d and the number of CTLs induced by the vaccine prepared by adding the compound prepared in Example 1 to vaccine d, and checking presence or absence of the increase on the number.
Specifically, Peptide of SEQ ID No. 5 was dissolved in DMSO, and then diluted with water for injection to concentrations of 2 mg/mL. […]

CCCCCNc1nc(N)nc(C)c1Cc1ccc(CN(C)CCOCCOCCOCCOCCO)cc1OC [Example 1, 1-(4-{[2-amino-4-methyl-6-(pentylamino)pyrimidin-5-yl]methyl}-3-methoxyphenyl)-2-methyl-5,8,11,14-tetraoxa-2-azahexadecan-16-ol·trifluoroacetate]
CTL counts responsive to Peptide of SEQ ID No. 5 compared with adding no compound: more
